Measurements from patent US20090197851A1, “THERAPY AND USE OF COMPOUNDS IN THERAPY” (MAX-DELBRUCK-CENTRUM FUR MOLEKULARE MEDIZIN, priority 1999, published 2009).

Experiments:
[1] = test system: monocyte generated cytokine production in response to LPS; settings: in the concentrations used; Greve et al. Hepatology 1989; cited from earlier work
[2] = test system: LPS-mediated TNF and IL6 production in whole blood; assay: LPS-stimulated cytokine production in whole blood of healthy control subjects (Milenia whole blood assay); type: cell-based, human; settings: LPS 50 pg/ml
Description: We have tested the ability of ursodeoxycholic acid (UDCA, FALK Pharma GmbH) to inhibit LPS-mediated TNF production in whole blood of healthy control subjects. Methods: Heparinized whole blood was diluted 1:10 with medium+/-LPS (50 pg/ml), +/-BPI (1 μg/ml), and +/-UDCA ([…]) according to the manufactorer's recommendation ([…] whole blood assay; DPC Biermann, Bad Nauheim, Germany) and incubated for 4 hours at 37° C. In the supernatant, we assessed concentrations of TNF and IL-6 using the semiautomated Immulite system (DPC-Biermann, Bad Nauheim, Germany).

[3] = test system: LPS-mediated TNF and IL6 production in whole blood; assay: LPS-stimulated cytokine production in whole blood of patients with cachexia due to liver cirrhosis (in vitro application); type: cell-based, human; settings: 1 mg/ml UDCA, LPS 50 pg/ml, 4 hours
Description: We have tested the ability of ursodeoxycholic acid (UDCA, FALK Pharma GmbH) and BPi to inhibit LPS-mediated TNF production in whole blood of patients with cachexia.
(§1) We studied 4 patients with cachexia due to liver cirrhosis. The patients had all weight loss >7.5% compared to their previous normal weight. […] All patients were studied twice on 2 subsequent days (day “−1” and day “0”), see FIG. 9 to 12.
(§2) Methods: Heparinized whole blood was diluted 1:10 with medium+/−LPS (50 pg/ml), +/−BPI (1 μg/ml), and +/−UDCA (1 μg/ml-1 mg/ml) according to the manufactorer's recommendation (Milenia whole blood assay; DPC Biermann, Bad Nauheim, Germany) and incubated for 4 hours at 37° C. In the supernatant, we assessed concentrations of TNF and IL-6 using the semiautomated Immulite system (DPC-Biermann, Bad Nauheim, Germany).

[4] = test system: spontaneous production of TNF and IL6 of whole blood; assay: Spontaneous production of TNF and IL6 in whole blood of patients with cachexia due to liver cirrhosis; type: cell-based, human; settings: BPi 1 μg/ml, 8 experiments, p<0.05
Description: as §1, §2

[5] = test system: LPS effects; settings: high concentrations of LBP, as seen during the acute phase response; cited from earlier work
[6] = test system: LPS-induced TNF synthesis in monocytes; assay: LPS-induced TNF synthesis in monocytes with pre-incubated serum; type: cell-based, human
Description: LPS-induced cytokine synthesis can be inhibited by serum lipoproteins. However, this is not easily seen experimentally, as it needs a certain pre-incubation procedure (18 hours at 37° C.) that we developed in our laboratory.
Methodology for example 4, 5, 7, and 8: TNF assessment: ELISA established in the laboratory of Dr. Schumann using 2 monoclonal antibodies (Pharmingen Inc., USA). Recombinant LBP: produced in the lab of Dr. Schumann. Lipoproteins: isolated from sera of healthy young volunteers, isolated by density gradient centrifugation, monocytes isolated also from blood of healthy young volunteers
Again, serum lacking lipoproteins was unable to block LPS-induced TNF synthesis. The ability to block LPS-induced TNF synthesis could be restored by addition of isolated lipoproteins. […] Methodology as in example 4

[7] = test system: LPS effects; settings: high concentrations of LBP; cited from earlier work
[8] = 100 μg/ml UDCA, whole blood of healthy control subjects, 4 hours
[9] = 1 mg/ml UDCA, whole blood of healthy control subjects diluted 1:10, 4 hours at 37° C.

Molecule: C[C@H](CCC(=O)O)[C@H]1CC[C@H]2[C@@H]3[C@H](O)C[C@@H]4C[C@H](O)CC[C@]4(C)[C@H]3CC[C@]12C [chenodeoxycholic acid]
- effectiveness on monocyte generated cytokine production in response to LPS [1]: less effective

Molecule: C[C@H](CCC(=O)O)[C@H]1CC[C@H]2[C@@H]3[C@@H](O)C[C@@H]4C[C@H](O)CC[C@]4(C)[C@H]3CC[C@]12C [UDCA, ursodeoxycholic acid]
- reduction of LPS-stimulated IL6 production [2, 8]: 43%
- reduction of LPS-stimulated TNF production [2, 8]: 68%
- reduction of LPS-stimulated IL6 production [2, 9]: > 95%
- reduction of LPS-stimulated TNF production [2, 9]: > 95%
- reduction of LPS-stimulated TNF production (on average) ([3]; whole blood of 4 patients with cachexia due to liver cirrhosis): > 99%
- reduction of LPS-stimulated IL6 production (on average) ([3]; whole blood of patients with cachexia due to liver cirrhosis): 97%

B1: BPi: protein found in human white blood cells that binds to and neutralises endotoxin (protein, UniProt P17213 32-487, looked up)
Bactericidal …: VNPGVVVRISQKGLDYASQQGTAALQKELKRIKIPDYSDSFKIKHLGKGHYSFYSMDIREFQLPSSQISMVPNVGLKFSISNANIKISGKWKAQKRFLKMSGNFDLSIEGMSISADLKLGSNPTSGKPTITCSSCSSHINSVHVHISKSKVGWLIQLFHKKIESALRNKMNSQVCEKVTNSVSSELQPYFQTLPVMTKIDSVAGINYGLVAPPATTAETLDVQMKGEFYSENHHNPPPFAPPVMEFPAAHDRMVYLGLSDYFFNTAGLVYQEAGVLKMTLRDDMIPKESKFRLTTKFFGTFLPEVAKKFPNMKIQIHVSASTPPHLSVQPTGLTFYPAVDVQAFAVLPNSSLASLFLIGMHTTGSMEVSAESNRLVGELKLDRLLLELKHSNIGPFPVELLQDIMNYIVPILVLPRVNEKLQKGFPLPTPARVQLYNVVLQPHQNFLLFGADVVYK
- spontaneous production of IL6 of whole blood [4]: reduced significantly
- spontaneous production of TNF of whole blood [4]: reduced significantly

B2: LBP: serum protein which binds to LPS; recombinant LBP produced in the lab of Dr. Schumann (protein, UniProt P18428 26-481, looked up)
Lipopolysaccharide-binding …: ANPGLVARITDKGLQYAAQEGLLALQSELLRITLPDFTGDLRIPHVGRGRYEFHSLNIHSCELLHSALRPVPGQGLSLSISDSSIRVQGRWKVRKSFFKLQGSFDVSVKGISISVNLLLGSESSGRPTVTASSCSSDIADVEVDMSGDLGWLLNLFHNQIESKFQKVLESRICEMIQKSVSSDLQPYLQTLPVTTEIDSFADIDYSLVEAPRATAQMLEVMFKGEIFHRNHRSPVTLLAAVMSLPEEHNKMVYFAISDYVFNTASLVYHEEGYLNFSITDDMIPPDSNIRLTTKSFRPFVPRLARLYPNMNLELQGSVPSAPLLNFSPGNLSVDPYMEIDAFVLLPSSSKEPVFRLSVATNVSATLTFNTSKITGFLKPGKVKVELKESKVGLFNAELLEALLNYYILNTFYPKFNDKLAEGFPLPLLKRVQLYDLGLQIHKDFLFLGANVQYMRV
- blocking of LPS effects in vitro [5]: completely block LPS effects
- LPS-stimulated TNF production in a monocyte stimulation system ([6]; high concentrations added to normal serum (containing lipoproteins)): reduces LPS-stimulated TNF production
- inhibition of LPS activity (LPS-induced TNF production) ([6]; titrated into lipoprotein-deficient serum, high levels of LBP): inhibit LPS activity
- blocking of LPS effects in a murine sepsis model [7]: completely block LPS effects
